For one assay, the system named is gastric acid secretion. In words: Inhibition of gastric acid secretion (modified Shay rat procedure). Type of assay: in vivo, rats (male, CFE strain). Conditions: 3 hours; for inhibition in vivo at 50 mg/kg: intraduodenal dose 50 mg./kg of body weight. The protocol:
The novel compounds of the present invention are also effective inhibitors of gastric acid secretion and of ulcer development in experimental animals, and thus are potentially valuable as agents for the control of gastric acid secretion and of gastric erosion and as anti-ulcer agents. Gastric acid secretion inhibitory action is usually measure by the "Shay rat" procedure^(1,2) with some modifications as follows.
The rats (male, CFE strain) were starved for 48 hours (water was given ad libitum) to permit evacuation of stomach contents. On the morning of the experiment, under ether anesthesia, the abdominal region was shaved and a midline incision (1-11/2 inches) was made with a scapel. With the help of a closed curved hemostate the duodenum was picked up. Upon getting the duodenum into view, fingers were used to pull the stomach through the opening, the stomach was then gently manipulated with fingers to rid the stomach of air and residual matter which were pushed through the pylorus. Two-5 inch sutures were drawn under the pyloric-duodenal puncture. A ligature, at the juncture, was formed with one of the threads. The second ligature was also formed but not tightened.
The test compound and the vehicle, usually 1 ml./100 g. body weight, were injected into the duodenum as close as possible to the first ligature. After injection the second ligature was tightened below the injection site to minimize leakage. The stomach was placed back through the opening into the abdominal cavity, the area of incision was washed with saline and the incision was closed with autoclips. (Occasionally, instead of an intraduodenal injection, animals were dosed by the oral or subcutaneous route. In the latter case, dosing was done 30 to 60 minutes before the operation.)
The abdominal cavity was exposed by cutting with scissors and the esophagus close to the stomach was clamped off with a hemostat, the stomach was removed by cutting above the hemostat (the .[.espphagus.]. .Iadd.esophagus .Iaddend.was cut) and between the two sutures. Extraneous .[.tisue.]. .Iadd.tissue .Iaddend.was removed, the stomach washed with saline and blotted on gauze. A slit was carefully made in the stomach which was held over a funnel and the contents were collected in a centrifuge tube. The stomach was further cut along the outside edge and turned inside out. Two ml. H2 O were used to wash the stomach contents into the respective centrifuged tube. The combined stomach contents and wash were then centrifuged out for 10 min. in the International Size 2 Centrifuge (setting at 30). The supernatant was collected, volume measured and recorded, 2 drops of a phenylphthalein indicator (1% in 95% ethanol) were added and the solution was titrated with 0.02N NaOH (or with 0.04N NaOH when large volumes of stomach contents were encountered to pH 8.4 (because of usual coloring of the stomach contents, phenolphthalein was only used to permit visual indication that the end point was near) and the amount of acid present was calculated.
Compounds inducing inhibition of gastric acid secretion of 20% or more were considered active. In a representative operation, and merely by way of illustration, the results obtained with this assay with typical compounds of the present invention are given in Table II below.

Assay [1] deals with bronchospasms elicited by 5-hydroxytryptamine. The experiment in a line: Bronchodilator activity (Konzett assay) against 5-hydroxytryptamine. Type of assay: in vivo, guinea pigs. Conditions: guinea pig, three cumulative intravenous doses; for ED50: Cavia porcellus, read-out: ED50, spasmogenic agent 5-hydroxytryptamine. The method, then:
(§1) Bronchodilator activity was determined in guinea pigs against bronchospasms elicited by intravenous injections of 5-hydroxytryptamine, histamine or acetylcholine by the Konzett procedure, [See J. Lulling, P. Lievens, F. El Sayed and J. Prignot, Arzneimittel-Forschung, 18, 995 (1968).]
(§2) In the Table which follows bronchodilator activity for representative compounds of this invention against one or more of the three spasmogenic agents is expressed as an ED50 determined from the results obtained with three logarithemic cumulative intravenous dose.

The test system of assay [2] is bronchospasms elicited by histamine. The experiment in a line: Bronchodilator activity (Konzett assay) against histamine. Conditions: guinea pig, three cumulative intravenous doses; for ED50: Cavia porcellus, read-out: ED50, spasmogenic agent histamine. Type of assay: in vivo, guinea pigs. The method, then: as §1, §2
Assay [3] relates to bronchospasms elicited by acetylcholine. The experiment in a line: Bronchodilator activity (Konzett assay) against acetylcholine. Type of assay: in vivo, guinea pigs. Conditions: Cavia porcellus, guinea pig, three cumulative intravenous doses, read-out: ED50, spasmogenic agent choline. The protocol:
as §1, §2

Assay [4] has as its system ulcerogenic properties of indomethacin. The experiment in a line: Anti-ulcerogenic effect (protection against the ulcerogenic properties of indomethacin). Type of assay: in vivo, rats. Conditions: indomethacin 20 mg./kg s.c. The protocol:
The compounds of this invention also provide protection against the ulcerogenic properties of indomethacin. This assay was carried out in the following manner.
Rats were starved for 48 hours (water was given ad libitum). Indomethacin (20 mg./kg. of body weight) was administered by the subcutaneous route and one-half the dose of the test compound was administered by gavage at the same time. After 3 hours, the second half of the test compound was administered also by gavage. Five hours after the administration of indomethacin the animals were decapitated and the stomachs removed. The stomachs were washed with distilled water, blotted on gauze, cut along the larger curvature, and the contents rinsed with distilled water. The stomachs were spread out, pinned on a cork and visualized under magnifying glass for ulcers. The criteria for scoring of .[.ulers.]. .Iadd.ulcers .Iaddend. was as previously reported. [Abdel-Galil et al. Brit. J. Pharmac. Chemotherapy 33:1-14 (1968)]. […]
1- Petechial hemorrhage or pin point ulcers
3- Many ulcers, a few large
4- Many ulcers, mainly large
A difference of at least 0.7 unit between the scores for control animals (treated with indomethacin but not test compound) and animals treated with indomethacin and test compound is considered indicative of activity for the test compound. (Control animals treated with neither indomethacin nor test compound give scores of about 0.5-0.8.) The results obtained in this assay with typical compounds of the present invention are set forth in Table I below.

[5] abbreviates: Rattus norvegicus, read-out: Percent Inhibition.
Setting [6] is: total oral dose 50 mg./kg, control score 2.3, scale 0 (normal stomach) to 4 (many ulcers, mainly large).
Setting [7] is: Rattus norvegicus, intraduodenal dose 100 mg./kg of body weight, read-out: Percent Inhibition.

A word on the ED50: it is the midpoint of the dose-response relation.

On to “9-oxo-18-hydroxy-19-hydroxy-13-trans-prostenoic acid”, for which, in the assay on gastric acid secretion (intraduodenal dose 100 mg./kg of body weight), the “Percent Inhibition” value is on record as 28%. Moreover, in assay [1], the “ED50, spasmogenic agent 5-hydroxytryptamine” value worked out at 1.19 mg/kg. Further, the “ED50, spasmogenic agent histamine” value in assay [2] was 1.04 mg/kg.

Consider `CCCCC(O)CCC[C@H]1CCC(=O)[C@@H]1CCCCCCC(=O)O` (stereo partly shown) [9-oxo-16-hydroxy-prostanoic acid, 16-hydroxy-9-oxo-prostanoic acid], for which, in the assay on gastric acid secretion (setting [5]), the inhibition in vivo at 50 mg/kg stood at 58%. Further, the 50% effective dose (ED50) stood at 0.0927 mg/kg in assay [1] and 1.13 mg/kg in assay [3]. The compound also gave a Score treated in assay [4] (setting [6]) of 1.3.

`O=C(O)CCCCCC[C@@H]1C(=O)CC[C@H]1/C=C/CCCCO` (relative stereo) [20-hydroxy-9-oxo-18,19-dinor-13-trans-prostenoic acid]: the inhibition in vivo at 50 mg/kg with gastric acid secretion (setting [5]) came to 21%. The results for the ED50 in assay [1], in assay [3] and in assay [2] were 2.85 mg/kg, 10 mg/kg and 2.22 mg/kg, respectively.

Regarding `CCCC(O)CC/C=C/[C@H]1[C@H](O)CC(=O)[C@@H]1CCCCCCC(=O)O` (relative stereo) [9-oxo-11α,17-dihydroxy-13-trans-prostenoic acid], in the assay on gastric acid secretion (setting [5]), the inhibition in vivo at 50 mg/kg turned out to be 73%. For the same compound, the median effective dose (ED50) in assay [1] was 0.235 mg/kg; in assay [3] it was 0.518 mg/kg; in assay [2], 0.45 mg/kg. This compound displayed a Score treated in assay [4] (total oral dose 25 mg./kg, control score 2.7, scale 0-4) of 1.3.

`O=C(O)CCCCCC[C@H]1C(=O)C[C@@H](O)[C@@H]1/C=C/CCCCCCO` (relative stereo) [11α ,20-dihydroxy-9-oxo-13-trans-prostenoic acid]: the ED50 in assay [1] is 0.377 mg/kg; in assay [3], 2.34 mg/kg; in assay [2], 0.077 mg/kg.

With `CCCCC(O)C/C=C/[C@H]1CCC(=O)[C@@H]1CCCCCCC(=O)O` (relative stereo) [16-hydroxy-9-oxo-13-trans-prostenoic acid], in the assay with gastric acid secretion (setting [5]), the inhibition in vivo at 50 mg/kg worked out at 67%. The figures for the ED50 in assay [3] and in assay [2] were 0.455 mg/kg and 0.0346 mg/kg, respectively. The same compound came in with a Score treated in assay [4] (setting [6]) of 1.2.

As for `O=C(O)CCCCCC[C@H]1C(=O)C=C[C@@H]1/C=C/CCCCCCO` (relative stereo) [20-hydroxy-9-oxo-10,13-trans-prostadienoic acid], in the assay on gastric acid secretion (setting [5]), the inhibition in vivo at 50 mg/kg came out at 91%. For the same compound, the ED50 stood at 1.32 mg/kg in assay [1] and 2.28 mg/kg in assay [2].

For `CCOC(=O)CCCCCC[C@@H]1C(=O)CC[C@H]1/C=C/CCCCO` (relative stereo) [ethyl 20-hydroxy-9-oxo-18,19-dinor-13trans-prostenoate], the inhibition in vivo at 100 mg/kg with gastric acid secretion (setting [7]) came out at 49%.

Take `CCCCC(O)C/C=C/[C@H]1[C@H](O)CC(=O)[C@@H]1CCCCCCC(=O)O` (relative stereo) [9-oxo-11α ,16-dihydroxy-13-trans-prostenoic acid]: the inhibition in vivo at 0.4 mg/kg in the assay on gastric acid secretion (Rattus norvegicus, dose 0.4* mg./kg of body weight (asterisk not explained), read-out: Percent Inhibition) was 27%. The inhibition in vivo at 0.8 mg/kg with gastric acid secretion (Rattus norvegicus, dose 0.8* mg./kg of body weight (asterisk not explained), read-out: Percent Inhibition) amounted to 53%. In addition, the inhibition in vivo at 1.6 mg/kg with gastric acid secretion (Rattus norvegicus, dose 1.6* mg./kg of body weight (asterisk not explained), read-out: Percent Inhibition) amounted to 79%. Besides, the ED50 in assay [1] was found to be 0.000607 mg/kg; in assay [3], 0.00042 mg/kg; in assay [2] it was 0.166 mg/kg. Also, the Score treated in assay [4] (total oral dose 0.18 mg./kg, control score 3.0, scale 0-4) came to 2.5; in assay [4] (total oral dose 0.39 mg./kg, control score 3.0, scale 0-4), 2.0; in assay [4] (total oral dose 0.78 mg./kg, control score 3.0, scale 0-4), 1.5; in assay [4] (total oral dose 1.56 mg./kg, control score 2.5, scale 0-4), 1.0; in assay [4] (total oral dose 4.4 mg./kg, control score 3.0, scale 0-4) it was 1.0; in assay [4] (total oral dose 12.5 mg./kg, control score 3.0, scale 0-4), 1.0.

Take `O=C(O)CCCCCC[C@H]1C(=O)CC[C@@H]1/C=C/CCCCCCO` (relative stereo) [20-hydroxy-9-oxo-13-trans-prostenoic acid]: the inhibition in vivo at 100 mg/kg in the assay on gastric acid secretion (setting [7]) came to 56%. Further, the 50% effective dose (ED50) in assay [1] is 0.117 mg/kg; in assay [3], 2.16 mg/kg; in assay [2], 0.03 mg/kg.

The record behind these values is patent USRE29469E, “Hydroxylated 15-deoxy derivatives of 9-hydroxyl-13-trans-prostenoic acid” (American Cyanamid Company, priority 1976, dated 1977).
